Experimental data reported in PubChem BioAssay (NCI).
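Results reflect a 48-hour exposure of cells in 96-well plates to compound at five concentrations. TGI denotes the concentration required for complete inhibition of growth.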

What was measured:
Assay in all cases: inhibition of tumour cell growth, NCI panel, 48 h
[1] = tested on: NCI-H226 lung
[2] = tested on: TK-10 renal
[3] = tested on: MALME-3M melanoma
[4] = tested on: HT29 colon
[5] = tested on: SN12C renal
[6] = tested on: RPMI-8226 leukemia
[7] = tested on: LOX IMVI melanoma
[8] = tested on: HCT-116 colon
[9] = tested on: 786-0 renal
[10] = tested on: SK-OV-3 ovarian
[11] = tested on: SK-MEL-28 melanoma
[12] = tested on: NCI-H460 lung
[13] = tested on: KM12 colon
[14] = tested on: ACHN renal
[15] = tested on: SW-620 colon
[16] = tested on: EKVX NSCLC
[17] = tested on: A549 NSCLC
[18] = tested on: SNB-78 CNS
[19] = tested on: RXF 393 renal
[20] = tested on: OVCAR-3 ovarian
[21] = tested on: HL-60(TB) leukemia
[22] = tested on: UACC-257 melanoma
[23] = tested on: NCI-H23 lung
[24] = tested on: SNB-75 CNS
[25] = tested on: MOLT-4 leukemia
[26] = tested on: OVCAR-8 ovarian
[27] = tested on: U251 CNS
[28] = tested on: COLO 205 colon
[29] = tested on: DMS 273 small cell lung
[30] = tested on: UACC-62 melanoma
[31] = tested on: SF-295 CNS
[32] = tested on: M14 melanoma
[33] = tested on: HCT-15 colon
[34] = tested on: LXFL 529 NSCLC
[35] = tested on: SF-268 CNS
[36] = tested on: DMS 114 small cell lung
[37] = tested on: CCRF-CEM leukemia
[38] = tested on: DLD-1 colon
[39] = tested on: M19-MEL melanoma
[40] = tested on: KM20L2 colon
[41] = tested on: SR leukemia
[42] = tested on: K-562 leukemia
[43] = tested on: HOP-62 NSCLC
[44] = tested on: NCI-H522 lung
[45] = tested on: IGROV1 ovarian
[46] = tested on: SNB-19 CNS
[47] = tested on: SF-539 CNS
[48] = tested on: UO-31 renal
[49] = tested on: OVCAR-4 ovarian
[50] = tested on: A498 renal
[51] = tested on: SK-MEL-2 melanoma
[52] = tested on: OVCAR-5 ovarian
[53] = tested on: HCC-2998 colon
[54] = tested on: SK-MEL-5 melanoma
[55] = tested on: XF 498 CNS
[56] = tested on: HOP-18 NSCLC
[57] = tested on: CAKI-1 renal
[58] = tested on: RXF-631 renal
[59] = tested on: HOP-92 NSCLC

Cn1c(=O)c(C(=O)NC23CC4CC(CC(C4)C2)C3)c(O)c2ccccc21
TGI [1]: 48.4 µM | TGI [2]: 48 µM | TGI [3]: 44.7 µM | TGI [4]: 48.1 µM | TGI [5]: 54.8 µM | TGI [6]: > 100 µM | TGI [7]: > 100 µM | TGI [8]: 57.9 µM | TGI [9]: 30.3 µM | TGI [10]: 73.4 µM | TGI [11]: > 100 µM | TGI [12]: 51.1 µM | TGI [13]: > 100 µM | TGI [14]: 42.9 µM | TGI [15]: > 100 µM | TGI [16]: > 100 µM | TGI [17]: > 100 µM | TGI [18]: > 100 µM | TGI [19]: 35.9 µM | TGI [20]: 63 µM | TGI [21]: > 100 µM | TGI [22]: > 100 µM | TGI [23]: > 100 µM | TGI [24]: 83.8 µM | TGI [25]: > 100 µM | TGI [26]: 64.1 µM | TGI [27]: 59.7 µM | TGI [28]: > 100 µM | TGI [29]: 64.3 µM | TGI [30]: > 100 µM | TGI [31]: 57.4 µM | TGI [32]: > 100 µM | TGI [33]: > 100 µM | TGI [34]: > 100 µM | TGI [35]: > 100 µM | TGI [36]: > 100 µM | TGI [37]: > 100 µM | TGI [38]: > 100 µM | TGI [39]: > 100 µM | TGI [40]: > 100 µM | TGI [41]: > 100 µM | TGI [42]: > 100 µM | TGI [43]: 43.6 µM | TGI [44]: > 100 µM | TGI [45]: 95.6 µM | TGI [46]: 43.9 µM | TGI [47]: > 100 µM | TGI [48]: > 100 µM

CSc1nc(C)cc(=O)n1C1OC(COC(C)=O)C(OC(C)=O)C(OC(C)=O)C1OC(C)=O (stereo not given)
TGI [49]: > 100 µM | TGI [1]: > 100 µM | TGI [2]: > 100 µM | TGI [3]: > 100 µM | TGI [4]: > 100 µM | TGI [5]: > 100 µM | TGI [6]: > 100 µM | TGI [7]: > 100 µM | TGI [8]: > 100 µM | TGI [9]: > 100 µM | TGI [10]: > 100 µM | TGI [11]: > 100 µM | TGI [50]: > 100 µM | TGI [12]: > 100 µM | TGI [51]: > 100 µM | TGI [13]: > 100 µM | TGI [52]: > 100 µM | TGI [14]: > 100 µM | TGI [15]: > 100 µM | TGI [16]: > 100 µM | TGI [17]: > 100 µM | TGI [20]: > 100 µM | TGI [21]: > 100 µM | TGI [22]: > 100 µM | TGI [23]: > 100 µM | TGI [24]: > 100 µM | TGI [25]: > 100 µM | TGI [26]: > 100 µM | TGI [27]: > 100 µM | TGI [28]: > 100 µM | TGI [29]: > 100 µM | TGI [53]: > 100 µM | TGI [30]: > 100 µM | TGI [31]: > 100 µM | TGI [32]: > 100 µM | TGI [33]: > 100 µM | TGI [34]: > 100 µM | TGI [35]: > 100 µM | TGI [36]: > 100 µM | TGI [54]: > 100 µM | TGI [55]: > 100 µM | TGI [37]: > 100 µM | TGI [38]: > 100 µM | TGI [39]: > 100 µM | TGI [40]: > 100 µM | TGI [41]: > 100 µM | TGI [42]: > 100 µM | TGI [44]: > 100 µM | TGI [45]: > 100 µM | TGI [46]: > 100 µM | TGI [48]: > 100 µM

O=C(NN1C(=O)C(Cl)C1c1c(O)ccc2ccccc12)c1ccccc1O (stereo not given)
TGI [49]: > 100 µM | TGI [1]: > 100 µM | TGI [2]: > 100 µM | TGI [3]: > 100 µM | TGI [4]: > 100 µM | TGI [5]: > 100 µM | TGI [7]: > 100 µM | TGI [8]: > 100 µM | TGI [9]: > 100 µM | TGI [10]: > 100 µM | TGI [11]: > 100 µM | TGI [50]: > 100 µM | TGI [12]: > 100 µM | TGI [51]: > 100 µM | TGI [13]: > 100 µM | TGI [14]: > 100 µM | TGI [17]: > 100 µM | TGI [18]: > 100 µM | TGI [19]: > 100 µM | TGI [20]: > 100 µM | TGI [21]: > 100 µM | TGI [22]: > 100 µM | TGI [23]: > 100 µM | TGI [24]: > 100 µM | TGI [25]: > 100 µM | TGI [26]: > 100 µM | TGI [27]: > 100 µM | TGI [56]: > 100 µM | TGI [29]: > 100 µM | TGI [30]: > 100 µM | TGI [31]: > 100 µM | TGI [32]: > 100 µM | TGI [33]: > 100 µM | TGI [34]: > 100 µM | TGI [35]: > 100 µM | TGI [36]: > 100 µM | TGI [54]: > 100 µM | TGI [55]: > 100 µM | TGI [37]: > 100 µM | TGI [38]: > 100 µM | TGI [39]: > 100 µM | TGI [42]: > 100 µM | TGI [44]: > 100 µM | TGI [45]: > 100 µM | TGI [46]: > 100 µM | TGI [47]: > 100 µM | TGI [48]: > 100 µM

CCOc1ccc(/C=C2/C(=O)N=C(N)N=C2N)cc1OCC
TGI [49]: > 100 µM | TGI [1]: > 100 µM | TGI [2]: > 100 µM | TGI [3]: > 100 µM | TGI [4]: > 100 µM | TGI [5]: > 100 µM | TGI [6]: > 100 µM | TGI [7]: > 100 µM | TGI [8]: > 100 µM | TGI [9]: > 100 µM | TGI [10]: > 100 µM | TGI [11]: > 100 µM | TGI [12]: > 100 µM | TGI [51]: > 100 µM | TGI [13]: > 100 µM | TGI [52]: > 100 µM | TGI [14]: > 100 µM | TGI [15]: > 100 µM | TGI [16]: > 100 µM | TGI [17]: > 100 µM | TGI [18]: > 100 µM | TGI [19]: > 100 µM | TGI [20]: > 100 µM | TGI [57]: > 100 µM | TGI [21]: > 100 µM | TGI [22]: > 100 µM | TGI [23]: > 100 µM | TGI [24]: > 100 µM | TGI [25]: > 100 µM | TGI [26]: > 100 µM | TGI [27]: > 100 µM | TGI [28]: > 100 µM | TGI [56]: > 100 µM | TGI [29]: > 100 µM | TGI [53]: > 100 µM | TGI [30]: > 100 µM | TGI [31]: > 100 µM | TGI [32]: > 100 µM | TGI [33]: > 100 µM | TGI [34]: > 100 µM | TGI [36]: > 100 µM | TGI [54]: > 100 µM | TGI [58]: > 100 µM | TGI [55]: > 100 µM | TGI [37]: > 100 µM | TGI [39]: > 100 µM | TGI [40]: > 100 µM | TGI [41]: > 100 µM | TGI [59]: > 100 µM | TGI [42]: > 100 µM | TGI [44]: > 100 µM | TGI [45]: > 100 µM | TGI [46]: > 100 µM | TGI [48]: > 100 µM
